Results from ChEMBL document CHEMBL1125738, “A ring-enlarged oxetanocin A analogue as an inhibitor of HIV infectivity” (1991).

Test system: Human immunodeficiency virus 1
Assay: Cytopathogenic effect was evaluated against Human immunovirus-1 (HIV-1).
Format: functional

Row | SMILES | Protective dose
1 | Nc1ncnc2c1ncn2[C@@H]1O[C@H](CO)[C@H]1CO | 100 µM
2 | Nc1ncnc2c1ncn2[C@H]1C[C@H](CO)[C@@H](CO)O1 | 10 µM
